In the supplement of paper PMC10307832:

The cell lines below were run with CC(C)N(CCCNC(=O)Nc1ccc(C(C)(C)C)cc1)C[C@H]1O[C@@H](n2ccc3c(N)ncnc32)[C@H](O)[C@@H]1O + O=C(CCCCCCC(=O)Nc1ccccc1)NO [Vorinostat] (partner 1 µM) (assay: relative viability (nuclei count vs DMSO), 5 days (fraction); higher = more cells survive). Conditions: first compound 0.08 µM.
Procedure, shortened: (§1)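 Nuclei were stained with Hoechst during a one-step fixation (final 0.05% Triton X-100, 1% formaldehyde, 1 ug/ml Hoechst) carried out 5 days after dosing, then counted on 4× images. The cells, lung cancer lines in 1536-well plates, had been dosed by pin tool the day after seeding with one drug alone or a fixed anchor-drug dose plus five library-drug doses (not always all listed) in √10 steps. Relative viability is the nuclei count in treated wells divided by that in vehicle wells, and each value is the median of duplicate plates.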

Cell Line | relative viability
NCI-H596 | 0.601
NCI-H2405 | 1.06
201T | 0.984
NCI-H1915 | 0.495
HCC-827 | 0.862
LXF-289 | 0.748
NCI-H2347 | 0.54
NCI-H661 | 0.77
CAL-12T | 0.788
NCI-H1651 | 0.543
EPLC-272H | 0.404
NCI-H23 | 0.582
NCI-H1355 | 0.592
NCI-H322M | 0.891
NCI-H1437 | 0.8

Same assay, conditions: first compound 0.253 µM

Cell Line | relative viability
NCI-H3122 | 1.2
HOP-62 | 0.555
LU99A | 0.342
BEN | 0.539
HARA | 0.511
HCC-78 | 0.391
NCI-H441 | 0.641
LCLC-97TM1 | 0.656
NCI-H2023 | 0.608
A-427 | 0.912
NCI-H460 | 0.727
NCI-H838 | 0.744
NCI-H1734 | 0.611
NCI-H596 | 0.427
NCI-H2405 | 0.969
201T | 0.975
NCI-H1915 | 0.582
HCC-827 | 0.903
LXF-289 | 0.762
NCI-H2347 | 0.537
NCI-H661 | 0.834
CAL-12T | 0.76
NCI-H1651 | 0.542
EPLC-272H | 0.439
NCI-H1355 | 0.632
NCI-H322M | 0.899
NCI-H1437 | 0.799

Same assay, conditions: first compound 0.8 µM

Cell Line | relative viability
NCI-H3122 | 0.894
HOP-62 | 0.445
LU99A | 0.483
BEN | 0.576
HARA | 0.529
HCC-78 | 0.4
LCLC-97TM1 | 0.801
NCI-H2023 | 0.576
A-427 | 0.875
NCI-H460 | 0.746
NCI-H838 | 0.784
NCI-H1734 | 0.677
NCI-H596 | 0.39
NCI-H2405 | 0.928
NCI-H1915 | 0.483
HCC-827 | 0.579
LXF-289 | 0.726
NCI-H2347 | 0.458
NCI-H661 | 0.812
CAL-12T | 0.965
NCI-H1651 | 0.504
EPLC-272H | 0.664
NCI-H23 | 0.557
NCI-H1355 | 0.529
NCI-H322M | 0.805
NCI-H1437 | 0.759

Same assay, conditions: first compound 2.53 µM

Cell Line | relative viability
NCI-H3122 | 0.991
HOP-62 | 0.58
LU99A | 0.539
BEN | 0.606
HARA | 0.496
HCC-78 | 0.42
NCI-H441 | 0.784
LCLC-97TM1 | 0.661
NCI-H2023 | 0.584
A-427 | 0.901
NCI-H460 | 0.701
NCI-H838 | 0.755
NCI-H1734 | 0.783
NCI-H596 | 0.674
NCI-H2405 | 1.07
201T | 0.911
NCI-H1915 | 0.475
HCC-827 | 0.902
LXF-289 | 0.752
NCI-H2347 | 0.608
NCI-H661 | 0.809
CAL-12T | 0.644
NCI-H1651 | 0.577
EPLC-272H | 0.4
NCI-H23 | 0.639
NCI-H1355 | 0.642
NCI-H322M | 0.842
NCI-H1437 | 0.791

Same assay, conditions: first compound 8 µM

Cell Line | relative viability
NCI-H3122 | 0.921
HOP-62 | 0.458
LU99A | 0.409
BEN | 0.572
HARA | 0.475
HCC-78 | 0.488
NCI-H441 | 0.654
LCLC-97TM1 | 0.831
NCI-H2023 | 0.45
A-427 | 0.9
NCI-H460 | 0.734
NCI-H838 | 0.672
NCI-H1734 | 0.756
NCI-H596 | 0.714
NCI-H2405 | 0.92
201T | 0.931
NCI-H1915 | 0.485
HCC-827 | 0.875
LXF-289 | 0.701
NCI-H2347 | 0.546
NCI-H661 | 0.785
CAL-12T | 0.578
NCI-H1651 | 0.576
EPLC-272H | 0.708
NCI-H23 | 0.549
NCI-H1355 | 0.575
NCI-H322M | 0.912
NCI-H1437 | 0.759

Each cell line was assayed with CC(C)N(CCCNC(=O)Nc1ccc(C(C)(C)C)cc1)C[C@H]1O[C@@H](n2ccc3c(N)ncnc32)[C@H](O)[C@@H]1O + Cc1nc(Nc2ncc(C(=O)Nc3c(C)cccc3Cl)s2)cc(N2CCN(CCO)CC2)n1 [Dasatinib] (partner 0.075 µM) in the same assay as above. Conditions: first compound 0.08 µM.
Procedure, shortened: as §1

Cell Line | relative viability
NCI-H3122 | 0.696
HOP-62 | 0.629
LU99A | 0.477
BEN | 0.29
HARA | 0.27
HCC-78 | 0.485
NCI-H441 | 0.718
